We go through 29 compounds from patent US20090181948A1, “DIAMINE DERIVATIVE” (KYOWA HAKKO KOGYO CO., LTD., priority 2005, published 2009).

Each structure is given as a SMILES string.

The target of this test is T1, histamine H3 receptor (Rattus norvegicus, UniProt Q9QYN8).
T1 construct: from tissue; host or cells: rat striatum (Sprague-Dawley, male, 6 weeks), membrane homogenate
T1 sequence (Q9QYN8 whole entry): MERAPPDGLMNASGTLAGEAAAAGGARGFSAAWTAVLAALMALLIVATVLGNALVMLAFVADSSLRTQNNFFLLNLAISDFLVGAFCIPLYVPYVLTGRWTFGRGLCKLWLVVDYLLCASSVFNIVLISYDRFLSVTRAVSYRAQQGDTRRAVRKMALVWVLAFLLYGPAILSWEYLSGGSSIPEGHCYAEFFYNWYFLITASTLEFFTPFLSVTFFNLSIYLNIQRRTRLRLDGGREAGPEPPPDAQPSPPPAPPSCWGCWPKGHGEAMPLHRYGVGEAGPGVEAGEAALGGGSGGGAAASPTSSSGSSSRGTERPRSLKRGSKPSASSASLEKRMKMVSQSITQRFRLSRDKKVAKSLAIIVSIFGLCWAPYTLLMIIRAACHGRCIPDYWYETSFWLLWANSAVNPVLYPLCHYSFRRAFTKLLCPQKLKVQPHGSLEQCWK
In words: Histamine H3 receptor binding assay ([3H]-Nα-methylhistamine binding to rat striatum homogenate). Particulars: 1 μmol/L test compound; [3H]-Nα-methylhistamine 1 nmol/L; striata of Sprague-Dawley male rats, 25° C., 1 hour; read-out: Inhibition ratio of [3H]-Nα-methylhistamine binding. The method, then: To the striata of Sprague-Dawley male rats (6 weeks of age), a 10-fold volume of lysis buffer {50 mmol/L [[…] (Tris)]/HCl (pH 7.4), 5 mmol/L ethylenediaminetetraacetic acid (EDTA), a protease inhibitor mixture [1 mg/mL phenylmethylsulfonyl fluoride (PMSF), 1 μg/mL pepstatin A, 1 μg/mL leupeptin, 1 μg/mL chymostatin]} was added and the striata were homogenized. The resulting homogenate was centrifuged (30,000×g, 4° C., 30 min), and the obtained precipitate was resuspended in a 10-fold volume of lysis buffer, followed by centrifugation under the same condition. To the obtained precipitate, a 3-fold volume of lysis buffer was added to suspend the precipitate, and the resulting tissue homogenate was used for a test.
A test compound was dissolved in an assay buffer [50 mmol/L Tris/HCl (pH 7.4), 5 mmol/L EDTA], and [^3H]-N^α-methylhistamine (1 nmol/L) and the tissue homogenate (20 μg, in terms of protein amount) were added thereto, and then, the mixture was incubated at 25° C. for 1 hour. Then, the reaction was terminated by rapid suction filtration on a glass filter [GF/B: Whatman, previously soaked in 0.3 w/v % polyethylenimine for about 30 min]. Then, the glass filter was washed three times with 3 mL of assay buffer. This glass filter was transferred into a scintillation vial and dried at 60° C. for 30 minutes. Then, 0.5 mL of Ultimagold (Perkin Elmer) was added thereto, and the radioactivity (binding amount of [^3H]-N^α-methylhistamine) was measured using a liquid scintillation counter. The obtained value was used as a binding amount in the presence of the test compound. The same procedure as described above was carried out in the absence of the test compound, and the binding amount of [^3H]-N^α-methylhistamine obtained at this time was used as a binding amount in the absence of the test compound. Further, the binding amount of [^3H]-N^α-methylhistamine obtained in the presence of 10 μmol/L thioperamide was used as a non-specific binding amount. An inhibitory action of [^3H]-N^α-methylhistamine binding was represented by an inhibition ratio in terms of 1 μmol/L of the test compound calculated by the following Equation (1).
Inhibition ratio(%)={1−[(Binding amount in the presence of test compound)−(Non-specific binding amount)]/[(Binding amount in the absence of test compound)−(Non-specific binding amount)]}×100 (1)
Take `CC1CCCN1CC1CCN(C(=C(C#N)C#N)N(C)CCN2CCC[C@H]2C)CC1` (stereo partly drawn) [Compound 155, ({N-methyl-N-[2-((R)-2-methylpyrrolidin-1-yl)ethyl]amino}[4-(2-methylpyrrolidin-1-ylmethyl)piperidino]methylene)malononitrile]: the inhibition at 1 µM was at least 80%.
To `N#CC(C#N)=C1N(CCCN2CC=CCC2)CCN1CCCN1CCCC1` [Compound 89, {1-[3-(1,2,3,6-Tetrahydropyridin-1-yl)propyl]-3-[3-(pyrrolidin-1-yl)propyl]imidazolidin-2-ylidene}malononitrile] belongs at least 80%.
For `CC1CC(C)CN(CCN2CCN(CCCN3CCCCC3)C2=C(C#N)C#N)C1` (centres unmarked) [Compound 13, {1-[2-(3,5-Dimethylpiperidino)ethyl]-3-(3-piperidinopropyl)imidazolidin-2-ylidene}malononitrile], the inhibition at 1 µM is at least 80%.
For `C[C@@H]1CCCN1CCN1CCN(CCCN2CCC[C@@H]2C)C1=C(C#N)S(=O)(=O)c1ccccc1` [Compound 243, {3-[2-((R)-2-methylpyrrolidin-1-yl)ethyl]-1-[3-((S)-2-methylpyrrolidin-1-yl)propyl]imidazolidin-2-ylidene}benzenesulfonylacetonitrile] the value was at least 80%.
`CC1CCCN1CCCN1CCN(CCN2C[C@H](C)C[C@H](C)C2)C1=C(C#N)C#N` (relative stereo) [Compound 20, {1-[2-(Cis-3,5-dimethylpiperidino)ethyl]-3-[3-(2-methylpyrrolidin-1-yl)propyl]imidazolidin-2-ylidene}malononitrile]: the inhibition at 1 µM was at least 80%.
To `CC1CCCN1CCCN1CCN(CCCN2CCN(C)CC2)C1=C(C#N)C#N` (centres unmarked) [Compound 78, {1-[3-(4-Methylpiperazin-1-yl)propyl]-3-[3-(2-methylpyrrolidin-1-yl)propyl]imidazolidin-2-ylidene}malononitrile] belongs at least 80%.
For `CC1CCCN(CCCN2CCN(CCCN3CCCCC3)C2=C(C#N)C#N)C1` (centres unmarked) [Compound 99, {1-[3-(3-Methylpiperidino)propyl]-3-(3-piperidinopropyl)imidazolidin-2-ylidene}malononitrile] the value was at least 80%.
To `N#CC(C#N)=C1N(CCCN2CC=CCC2)CCN1CCCN1CCCCCC1` [Compound 68, {1-[3-(Azepan-1-yl)propyl]-3-[3-(1,2,3,6-tetrahydropyridin-1-yl)propyl]imidazolidin-2-ylidene}malononitrile] belongs at least 80%; to `N#CC(C#N)=C1N(CCN2CCCCC2)CCN1CCN1CCCCC1` [Compound 5, [1,3-Bis(2-piperidinoethyl)imidazolidin-2-ylidene]malononitrile], at least 80%; to `C[C@@H]1CCCN1CCN(C)C(=C(C#N)C#N)N1CCC(CN2CCCCC2)CC1` [Compound 151, ({N-methyl-N-[2-((R)-2-methylpyrrolidin-1-yl)ethyl]amino}(4-piperidinomethylpiperidino)methylene)malononitrile], at least 80%.
As for `CC(C)N1CCC(N2CCCN(CCCN3CCCCC3)C2=C(C#N)C#N)CC1` [Compound 238, [1-(1-Isopropylpiperidin-4-yl)-3-(3-piperidinopropyl)tetrahydropyrimidin-2-ylidene]malononitrile], the inhibition at 1 µM was at least 80%.
To `CC(C)N1CCC(CN2CCN(CC3CCN(C(C)C)CC3)C2=C(C#N)C#N)CC1` [Compound 134, [1,3-Bis(1-isopropylpiperidin-4-ylmethyl)imidazolidin-2-ylidene]malononitrile] belongs at least 80%; to `CC1CC(C)CN(CCCN2CCN(CCCN3CCCC3)C2=C(C#N)C#N)C1` (centres unmarked) [Compound 96, {1-[3-(3,5-Dimethylpiperidino)propyl]-3-[3-(pyrrolidin-1-yl)propyl]imidazolidin-2-ylidene}malononitrile], at least 80%; to `CC1CCN(CCCN2CCN(CCCN3CCCCC3)C2=C(C#N)C#N)CC1` [Compound 100, {1-[3-(4-Methylpiperidino)propyl]-3-(3-piperidinopropyl)imidazolidin-2-ylidene}malononitrile], at least 80%.
To `C=CCN1CCC(N2CCN(CCCN3CCCCC3)C2=C(C#N)C#N)CC1` [Compound 227, [1-(1-Allylpiperidin-4-yl)-3-(3-piperidinopropyl)imidazolidin-2-ylidene]malononitrile] belongs at least 80%.
For `N#CC(C#N)=C(NCCCN1CCC(F)(F)C1)N1CCC(N2CCCCC2)CC1` [Compound 168, {[3-(3,3-Difluoropyrrolidin-1-yl)propylamino](4-piperidinopiperidino)methylene}malononitrile] the value was at least 80%.
As for `C[C@H]1CCCN1CCCCN1CCN(CCN2CCC[C@@H]2C)C1=C(C#N)C#N` [Compound 190, {1-[4-((S)-2-methylpyrrolidin-1-yl)butyl]-3-[2-((S)-2-methylpyrrolidin-1-yl)ethyl]imidazolidin-2-ylidene}malononitrile], the inhibition at 1 µM is at least 80%.
For `CCN(CC)CCN1CCN(CCCN2CCCCC2)C1=C(C#N)C#N` [Compound 49, [1-(2-Diethylaminoethyl)-3-(3-piperidinopropyl)imidazolidin-2-ylidene]malononitrile] the value was at least 80%; for `CC1CCCN(CCCN2CCN(CCCN3CCCC3C)C2=C(C#N)C#N)C1` (centres unmarked) [Compound 112, {1-[3-(3-Methylpiperidino)propyl]-3-[3-(2-methylpyrrolidin-1-yl)propyl]imidazolidin-2-ylidene}malononitrile], at least 80%; for `CC1CCCCN1CCCN1CCN(CCCN2CC=CCC2)C1=C(C#N)C#N` (centres unmarked) [Compound 86, {1-[3-(1,2,3,6-Tetrahydropyridin-1-yl)propyl]-3-[3-(2-methylpiperidino)propyl]imidazolidin-2-ylidene}malononitrile], at least 80%.
To `CC1CC(C)CN(CCCN2CCN(CCCN3CCCC3C)C2=C(C#N)C#N)C1` (centres unmarked) [Compound 110, {1-[3-(3,5-Dimethylpiperidino)propyl]-3-[3-(2-methylpyrrolidin-1-yl)propyl]imidazolidin-2-ylidene}malononitrile] belongs at least 80%; to `CC1CCCN1CCCN1CCN(CCCN2CCCC2C)C1=O` (centres unmarked) [Compound 141, 1,3-Bis[3-(2-methylpyrrolidin-1-yl)propyl]imidazolidine-2-one], at least 80%.
Take `CC(C)N1CCC(CN2CCN(CCCN3CCCCC3)C2=C(C#N)C#N)CC1` [Compound 133, {1-[(1-Isopropylpiperidin-4-yl)methyl]-3-(3-piperidinopropyl)imidazolidin-2-ylidene}malononitrile]: the inhibition at 1 µM is at least 80%.
Take `CC1CCCN1CCCNC(=C(C#N)C#N)N1CCC(CN2CCCC2C)CC1` (centres unmarked) [Compound 174, {[4-(2-Methylpyrrolidin-1-ylmethyl)piperidino][3-(2-methylpyrrolidin-1-yl)propylamino]methylene}malononitrile]: the inhibition at 1 µM is at least 80%.
To `CC1CCCN1CCCNC(=C(C#N)C#N)N1CCC(N2CCCCC2)CC1` (centres unmarked) [Compound 170, {[3-(2-Methylpyrrolidin-1-yl)propylamino](4-piperidinopiperidino)methylene}malononitrile] belongs at least 80%.
For `N#CC(C#N)=C1N(CCCN2CCc3ccccc3C2)CCN1CCN1CCCCC1` [Compound 52, {1-[3-(1,2,3,4-Tetrahydroisoquinolin-2-yl)propyl]-3-(2-piperidinoethyl)imidazolidin-2-ylidene}malononitrile] the value was at least 80%; for `CCN(CC)CCCN1CCN(CCN2CCCCC2)C1=C(C#N)C#N` [Compound 48, [1-(3-Diethylaminopropyl)-3-(2-piperidinoethyl)imidazolidin-2-ylidene]malononitrile], at least 80%; for `CC1CCCN1CCN1CCN(CCCN2CCCC2)C1=C(C#N)C#N` (centres unmarked) [Compound 54, {1-[2-(2-Methylpyrrolidin-1-yl)ethyl]-3-[3-(3-pyrrolidin-1-yl)propyl]imidazolidin-2-ylidene}malononitrile], at least 80%.
For `CC1CCCN1CCCN1CCN(CCCN2CCCC2C)C1=C(C#N)S(=O)(=O)c1ccccc1` (centres unmarked) [Compound 244, {1,3-Bis[3-(2-methylpyrrolidin-1-yl)propyl]imidazolidin-2-ylidene}benzenesulfonylacetonitrile], the inhibition at 1 µM is at least 80%.
